Source: ChEMBL document CHEMBL5247647, “Phenothiazine-Based LSD1 Inhibitor Promotes T-Cell Killing Response of Gastric Cancer Cells” (J Med Chem, 2023)
Active and inactive are the calls of the source. The calls are words filed in the database; no cut-off is given here.

What was measured:
[1] = target: T1, Lysine-specific histone demethylase 1A (Homo sapiens, UniProt O60341); assay: Inhibition of human LSD1 in human LSD1 knockout BGC-823 cells assessed as effect on H3K4me1 methylation at 5 to 20 uM incubated for 5 days by Western blot anlaysis; assay type: cell-based; details: dose 5-20 µM, time 5.0 day
[2] = Toxicity against 615 mouse xenografted with mouse MFC cells in assessed as pathological changes in kidney at 10 to 50 mg/kg, po for 14 days by Hematoxylin and Eosin staining based microscopic analysis; assay type: organism-based; details: in vivo, 336 h, dose 10-50 mg/kg, time 14 day
[3] = system: MFC; assay: Antitumor activity against mouse MFC cells xenografted in 615 mouse assessed as increase in IL-2 expression level in tumor at 10 to 50 mg/kg, po for 14 days by ELISA; assay type: functional, organism-based; details: dose 10-50 mg/kg, time 14.0 day
[4] = system: MFC; assay: Antitumor activity against mouse MFC cells xenografted in 615 mouse assessed as increase in IFNgamma expression level in tumor at 10 to 50 mg/kg, po for 14 days by ELISA; assay type: functional, organism-based; details: dose 10-50 mg/kg, time 14.0 day
[5] = system: MFC; assay: Antitumor activity against mouse MFC cells xenografted in 615 mouse assessed as increase in infiltration of CD3+ T cells into tumor at 10 to 50 mg/kg, po for 14 days by immunohistochemistry; assay type: functional, organism-based; details: dose 10-50 mg/kg, time 14.0 day
[6] = system: BGC-823; assay: Anticancer activity against human BGC-823 cells assessed as increase in CD3/CD28 activated T-cell killing response by measuring TNFalpha level at 5 to 20 uM incubated for 5 days by Sandwich ELISA; assay type: functional, cell-based; details: dose 5-20 µM, time 5.0 day
[7] = target: T1, Lysine-specific histone demethylase 1A; assay: Inhibition of human LSD1 in human BGC-823 cells assessed as inhibition of H3K4me1 demethylation at 5 to 20 uM incubated for 5 days by Western blot anlaysis; assay type: cell-based; details: dose 5-20 µM, time 5.0 day
[8] = target: T1, Lysine-specific histone demethylase 1A; assay: Inhibition of recombinant LSD1 (unknown origin) expressed in Escherichia coli BL21 (DE3) using H3K4me2 peptide as substrate incubated for 30 mins by fluorescence based microplate reader assay
[9] = target: T2, MAO-A (Homo sapiens, UniProt P21397); assay: Inhibition of recombinant human MAO-A at 10 uM
T2 sequence (P21397 whole entry): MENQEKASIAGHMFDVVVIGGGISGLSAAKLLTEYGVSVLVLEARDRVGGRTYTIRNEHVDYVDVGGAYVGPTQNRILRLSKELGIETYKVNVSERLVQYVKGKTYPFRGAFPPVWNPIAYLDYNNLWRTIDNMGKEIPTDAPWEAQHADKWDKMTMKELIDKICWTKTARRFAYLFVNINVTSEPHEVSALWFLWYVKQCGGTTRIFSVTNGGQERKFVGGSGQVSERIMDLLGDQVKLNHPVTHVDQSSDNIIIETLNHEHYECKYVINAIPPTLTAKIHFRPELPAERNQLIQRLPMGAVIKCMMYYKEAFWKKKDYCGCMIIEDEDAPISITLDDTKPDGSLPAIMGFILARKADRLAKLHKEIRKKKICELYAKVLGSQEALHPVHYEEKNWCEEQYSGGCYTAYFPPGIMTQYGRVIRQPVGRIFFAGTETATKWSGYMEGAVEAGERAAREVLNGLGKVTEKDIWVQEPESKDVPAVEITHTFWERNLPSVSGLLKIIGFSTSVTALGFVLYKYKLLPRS

[10] = system: BGC-823; assay: Downregulation of PD-L1 expression in human BGC-823 cell membrane at 5 to 20 uM incubated for 5 days by Western blot anlaysis; assay type: functional, cell membranes; details: dose 5-20 µM, time 5.0 day
[11] = system: BGC-823; assay: Anticancer activity against human PD-L1 knockout BGC-823 cells assessed as increase in CD3/CD28 activated T-cell killing response at 5 to 20 uM incubated for 5 days by DAPI staining based assay; assay type: functional; details: dose 5-20 µM, time 5.0 day
[12] = Toxicity against 615 mouse xenografted with mouse MFC cells in assessed as body weight change in tumor at 10 to 50 mg/kg, po for 14 days; assay type: organism-based; details: in vivo, 336 h, dose 10-50 mg/kg, time 14 day
[13] = system: MFC; assay: Downregulation of PD-L1 expression in mouse LSD1 knockout MFC cells at 5 to 20 uM incubated for 5 days by Western blot anlaysis; assay type: functional, cell-based; details: dose 5-20 µM, time 5.0 day
[14] = Toxicity against 615 mouse xenografted with mouse MFC cells in assessed as pathological changes in lungs at 10 to 50 mg/kg, po for 14 days by Hematoxylin and Eosin staining based microscopic analysis; assay type: organism-based; details: in vivo, 336 h, dose 10-50 mg/kg, time 14 day
[15] = target: T1, Lysine-specific histone demethylase 1A; assay: Inhibition of human LSD1 in human LSD1 knockout BGC-823 cells assessed as effect on H3K4me3 methylation at 5 to 20 uM incubated for 5 days by Western blot anlaysis; assay type: cell-based; details: dose 5-20 µM, time 5.0 day
[16] = target: T3, Lysine-specific histone demethylase 2 (Homo sapiens) (UniProt Q8NB78); assay: Inhibition of recombinant LSD2 (unknown origin) at 10 uM
T3 sequence (whole entry): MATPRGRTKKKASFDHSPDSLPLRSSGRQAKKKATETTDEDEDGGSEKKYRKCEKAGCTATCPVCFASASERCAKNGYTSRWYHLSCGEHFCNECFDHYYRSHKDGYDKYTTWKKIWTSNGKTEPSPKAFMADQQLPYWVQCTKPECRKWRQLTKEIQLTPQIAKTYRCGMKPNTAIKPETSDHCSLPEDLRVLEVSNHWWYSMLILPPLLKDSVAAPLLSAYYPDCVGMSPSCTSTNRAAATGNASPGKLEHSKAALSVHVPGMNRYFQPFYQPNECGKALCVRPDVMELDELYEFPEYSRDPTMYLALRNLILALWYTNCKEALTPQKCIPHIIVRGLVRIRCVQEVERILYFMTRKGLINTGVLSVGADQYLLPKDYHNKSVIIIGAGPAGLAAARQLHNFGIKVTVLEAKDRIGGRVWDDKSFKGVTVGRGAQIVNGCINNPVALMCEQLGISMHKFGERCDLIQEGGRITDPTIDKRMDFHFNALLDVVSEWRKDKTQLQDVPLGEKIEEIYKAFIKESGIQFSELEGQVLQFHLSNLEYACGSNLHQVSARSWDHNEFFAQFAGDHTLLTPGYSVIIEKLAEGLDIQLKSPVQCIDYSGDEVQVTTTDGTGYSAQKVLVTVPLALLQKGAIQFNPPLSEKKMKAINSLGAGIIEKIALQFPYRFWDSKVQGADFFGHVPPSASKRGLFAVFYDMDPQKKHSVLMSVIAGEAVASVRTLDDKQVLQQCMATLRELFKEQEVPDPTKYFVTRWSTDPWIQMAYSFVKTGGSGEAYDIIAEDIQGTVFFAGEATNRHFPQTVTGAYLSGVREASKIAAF

[17] = target: T1, Lysine-specific histone demethylase 1A; assay: Inhibition of human LSD1 in human LSD1 knockout BGC-823 cells assessed as effect on H3K4me2 methylation at 5 to 20 uM incubated for 5 days by Western blot anlaysis; assay type: cell-based; details: dose 5-20 µM, time 5.0 day
[18] = system: MFC; assay: Downregulation of PD-L1 expression in mouse MFC cell membrane at 5 to 20 uM incubated for 5 days by Western blot anlaysis; assay type: functional, cell membranes; details: dose 5-20 µM, time 5.0 day
[19] = system: BGC-823; assay: Downregulation of PD-L1 expression in human LSD1 knockout BGC-823 cells transfected with wild type LSD1 plasmid at 20 uM incubated for 5 days by Western blot anlaysis; assay type: functional, cell-based; details: time 5.0 day
[20] = system: MFC; assay: Antitumor activity against mouse MFC cells xenografted in 615 mouse assessed as tumor growth suppression at 10 to 50 mg/kg, po for 14 days; assay type: functional, organism-based; details: dose 10-50 mg/kg, time 14.0 day
[21] = Toxicity against 615 mouse xenografted with mouse MFC cells in assessed as pathological changes in spleen at 10 to 50 mg/kg, po for 14 days by Hematoxylin and Eosin staining based microscopic analysis; assay type: organism-based; details: in vivo, 336 h, dose 10-50 mg/kg, time 14 day
[22] = system: BGC-823; assay: Downregulation of PD-L1 expression in human BGC-823 cells at 5 to 20 uM incubated for 5 days by Western blot anlaysis; assay type: functional, cell-based; details: dose 5-20 µM, time 5.0 day

c1ccc2c(c1)Sc1ccccc1N2CCN1CCOCC1
inhibition [1]: inactive
Activity [2]: Non-Toxic
Activity [3]: Active
Activity [4]: Active
Activity [5]: Active
Activity [6]: Active
inhibition [7]: Active
IC50 [8]: 247 nM
inhibition at 10 µM [9]: < 10%
Activity [10]: Dose-Dependent Effect
Activity [11]: inactive
Activity [12]: Non-Toxic
Activity [13]: inactive
Activity [14]: Non-Toxic
inhibition [15]: inactive
inhibition [16]: > 10%
inhibition [17]: inactive
Activity [18]: Dose-Dependent Effect
Activity [19]: Active
Activity [20]: Dose-Dependent Effect
Activity [21]: Non-Toxic
Activity [22]: Dose-Dependent Effect
